# According to PMC11256326, “Discovery of Heparin Mimetic, Potent, and Selective Inhibitors of Human Clotting Factor XIIIa” (ACS Omega, 2024):
# Assays:
# [1] = test system: CaCo-2 heterogeneous human epithelial colorectal adenocarcinoma cells; assay: cell viability, Alamar Blue, CaCo-2; format: cell-based; details: CaCo-2, 10 μM, 3 days
# Experimental: (§1) To further evaluate the selectivity as well as the potential toxicity of inhibitors, we studied their effects on the clotting times of normal human plasma as well as their effects on the proliferation of three cell lines. On the one hand, the inhibitors’ effects on activated partial thromboplastin time (APTT) and prothrombin time (PT) were measured, as described earlier under in vitro conditions,[52]−[55] using variable concentrations (0–2000 μM) (Table 3). […] On the other hand, the antiproliferative properties of inhibitors 13 and 16 were evaluated in three cell lines of breast (MCF-7), intestine (CaCo-2), and kidney (HEK-293) (Figure 5B), as described earlier.[56] […] Overall, inhibitor 16 can be considered for further development as a potent, selective, and nontoxic inhibitor of human FXIIIa.
# HEK-293 human embryonic kidney cells,[66] CaCo-2 heterogeneous human epithelial colorectal adenocarcinoma cells,[67] and MCF-7 human breast carcinoma cells[68] were treated as reported previously.[69],[70] […] Subsequently, fluorescence readings (λEx. = 560 nm and λEm. = 590 nm) were taken using the Synergy H1 multiplate reader (BioTek) to quantify cell numbers both in the absence (utilizing distilled water as a control) and the presence of inhibitors 13 and 16 (at a concentration of 10 μM; incubated for 3 days). […]
# [2] = target: T1, FXIIIa (Homo sapiens, UniProt P00488); assay: bisubstrate, fluorescence-based trans-glutamination assay; format: biochemical; details: for HS (Hill slope), FXIIIa inhibition: logistic fit eq 1; for IC50: pH 7.4, 37 °C, substrates dansylcadaverine and N,N-dimethylcasein
# T1 construct: purchased Haematologic Technologies; host or cells: human plasma
# T1 sequence (P00488 39-732 limits assumed): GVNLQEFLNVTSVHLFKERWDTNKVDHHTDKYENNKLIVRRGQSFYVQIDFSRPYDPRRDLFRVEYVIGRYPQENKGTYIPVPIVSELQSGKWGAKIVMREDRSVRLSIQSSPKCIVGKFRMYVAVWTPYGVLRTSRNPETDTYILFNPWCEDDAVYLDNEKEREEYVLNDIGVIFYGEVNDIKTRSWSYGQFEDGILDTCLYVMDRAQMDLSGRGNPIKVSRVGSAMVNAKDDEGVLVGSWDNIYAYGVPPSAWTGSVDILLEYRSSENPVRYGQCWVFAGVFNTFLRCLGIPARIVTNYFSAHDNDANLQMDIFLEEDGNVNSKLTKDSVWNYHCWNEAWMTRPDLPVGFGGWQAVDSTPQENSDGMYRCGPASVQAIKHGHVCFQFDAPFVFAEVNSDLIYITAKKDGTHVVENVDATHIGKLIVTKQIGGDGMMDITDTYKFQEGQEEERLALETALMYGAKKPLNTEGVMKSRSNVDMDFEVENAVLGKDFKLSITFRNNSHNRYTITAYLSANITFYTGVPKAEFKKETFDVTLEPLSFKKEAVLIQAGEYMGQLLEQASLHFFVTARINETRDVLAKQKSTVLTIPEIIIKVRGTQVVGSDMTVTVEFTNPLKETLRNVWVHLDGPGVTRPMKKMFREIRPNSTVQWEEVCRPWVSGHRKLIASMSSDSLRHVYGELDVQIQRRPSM
# Description: A series of 27 sulfonated molecules (Figure 3) was screened for inhibition of human FXIIIa using a modified bisubstrate, fluorescence-based trans-glutamination assay, as described earlier.[36],[49] Dansylcadaverine and N,N-dimethylcasein were used as two substrates, which upon FXIIIa-dependence conjugation show a marked increase in fluorescence at 550 nm (λEX = 360 nm). The sulfonated molecules were structurally diverse given their number of anionic groups (mono- (inhibitors 24–27) to octa- (inhibitor 9)), number of building blocks (monomeric (molecules 26–29) to […] (inhibitor 14)), and the nature of the building block of oligomeric derivatives (benzamide derivatives (inhibitors 3–10, 24, and 25), triazine derivatives (inhibitors 11–14), and azo-naphthalene derivatives (molecules 15–22), and ureido-naphthalene derivative (23)) (Figure 3).
# To measure the potency and efficacy of these inhibitors, the dose-dependence of FXIIIa inhibition was evaluated using logistic eq 1 (Table 1). The potency of inhibition refers to the IC50 (x-axis), whereas the efficacy refers to the net change in residual FXIIIa activity (ΔY%) (y-axis). Iodoacetamide, a nonselective inhibitor of thiol-containing enzymes, was used as a positive control.
# To evaluate the effect of sulfonated molecules on human FXIIIa, a bisubstrate, fluorescence-based trans-glutamination assay was performed as we reported previously.[36],[49] Generally, 1 μL of the sulfonated molecule was diluted with 87 μL of pH 7.4 buffer (50 mM Tris-HCl, 1 mM CaCl2, 100 mM NaCl, and 2 mg/mL N,N-dimethylcasein) and 5 μL dithiothreitol (20 mM) at 37 °C followed by the addition of 2 μL of human FXIIIa (0.3 μM) and incubation for 10 min. The activity of FXIIIa was monitored following the addition of 5 μL of dansylcadaverine (2 mM) by measuring the initial rate of increase in fluorescence emission (λEx. = 360 nm and λEm. = 550 nm). Relative residual FXIIIa activity at each concentration of the inhibitor was calculated from the ratio of FXIIIa activity in the presence and absence of the inhibitor. Logistic eq 1 was used to fit the concentration dependence of residual FXIIIa activity to obtain the potency (IC50) and efficacy (ΔY%) of inhibition. [drawing 1] 1
# This equation defines Y as the ratio of residual FXIIIa activity with the inhibitor present compared to its absence. YM represents the maximum possible value of residual FXIIIa activity, while YO denotes the minimum possible value. IC50 signifies the concentration of the inhibitor causing 50% enzyme activity inhibition, and HS represents the Hill slope. Determination of YM, YO, IC50, and HS values is achieved through nonlinear curve fitting of the experimental data.
# [3] = test system: normal human plasma; assay: prothrombin time (PT) of normal human plasma; format: biochemical; details: in vitro
# Experimental: as §1
# Clotting times, including activated partial thromboplastin time (APTT) and prothrombin time (PT), were assessed in normal human plasma utilizing the BBL Fibrosystem fibrometer from Becton–Dickinson, as detailed in previous publications.[51]−[54] For the PT assay, thromboplastin-D was dissolved in 4 mL of highly purified water and then warmed to 37 °C. Subsequently, 10 μL of the inhibitor was added to 90 μL of normal human plasma and incubated for 30 s. Following this, 200 μL of prewarmed PT reagent was added, and the clotting time was recorded. In the APTT assay, 10 μL of the inhibitor was combined with 90 μL of normal human plasma and 100 μL of prewarmed APTT reagent (0.2% ellagic acid). After incubation for 4 min at 37 °C, clotting was initiated by adding 100 μL of prewarmed 0.025 M CaCl2, and the clotting time was documented. Multiple concentrations of each molecule were employed in both assays to establish a concentration vs effect curve.
Structure (SMILES),effect on proliferation / cell viability [1],"HS (Hill slope), FXIIIa inhibition [2]",IC50 [2],PT2X (concentration required to double PT) [3]
Nc1c(S(=O)(=O)O)cc(Nc2ccc(Nc3nc(Cl)nc(Nc4ccccc4S(=O)(=O)O)n3)c(S(=O)(=O)O)c2)c2c1C(=O)c1ccccc1C2=O [compound 13],does not significantly affect the proliferation,0.7 ± 0.03,3.1 ± 0.3 µM,–
Nc1c(/N=N/c2ccc(S(=O)(=O)CCOS(=O)(=O)O)cc2)c(S(=O)(=O)O)cc2cc(S(=O)(=O)O)c(/N=N/c3ccc(S(=O)(=O)CCOS(=O)(=O)O)cc3)c(O)c12 [compound 16],does not significantly affect the proliferation,0.8 ± 0.1,2.4 ± 0.5 µM,–
COc1cc(-c2ccc(/N=N/c3ccc4c(S(=O)(=O)O)cc(S(=O)(=O)O)c(N)c4c3O)c(OC)c2)ccc1/N=N/c1ccc2c(S(=O)(=O)O)cc(S(=O)(=O)O)c(N)c2c1O [compound 19],–,1.4 ± 0.4,13.9 ± 2.6 µM,3073.2 ± 281 µM
Nc1c(/N=N/c2ccc(Nc3nc(Cl)nc(Nc4cccc(S(=O)(=O)O)c4)n3)cc2S(=O)(=O)O)c(S(=O)(=O)O)cc2c(O)c(/N=N/c3ccc(Nc4nc(Cl)nc(Nc5cccc(S(=O)(=O)O)c5)n4)cc3S(=O)(=O)O)ccc12 [compound 14],–,1.1 ± 0.1,5.1 ± 0.3 µM,–
Cc1cc(-c2ccc(/N=N/c3ccc4c(S(=O)(=O)O)cc(S(=O)(=O)O)c(N)c4c3O)c(C)c2)ccc1/N=N/c1ccc2c(S(=O)(=O)O)cc(S(=O)(=O)O)c(N)c2c1O [compound 18],–,1.5 ± 0.6,–,497.9 ± 52 µM
